Values after ≈ are worked out from the molar mass of the structure shown.

The test system of test [1] is Mycobacterium tuberculosis. The test can be described thus: Antitubercular activity against Mycobacterium tuberculosis H37Rv ATCC 27294 incubated for 1 week by MABA. In kind it is functional. Particulars: H37Rv ATCC 27294, 168 h.
In test [2] the test system is Vero. The test can be described thus: Cytotoxicity against African green monkey Vero cells by CellTiter 96 aqueous nonradioactive cell proliferation assay. The test is classed as cell-based. Particulars: Chlorocebus sabaeus.
For test [3], the system named is Mycobacterium tuberculosis. Nature of the test: Antitubercular activity against Mycobacterium tuberculosis H37Rv. The test is classed as functional.

As for `CO[C@H]1/C=C/O[C@@]2(C)Oc3c(C)c(O)c4c(O)c(c(/C=N/N5CCN(C)CC5)c(O)c4c3C2=O)NC(=O)/C(C)=C\C=C\[C@H](C)[C@H](O)[C@@H](C)[C@@H](O)[C@@H](C)[C@H](OC(C)=O)[C@@H]1C` [RIFAMPIN], the MIC90 in test [1] was 0.05 µg/mL (≈ 0.0608 µM). Besides, the IC50 in test [2] is 97.4 µg/mL (≈ 118 µM).

`O=C1c2ccccc2-n2c1nc1ccccc1c2=O` [TRYPTANTHRIN] yielded an MIC90 in test [1] of 7.59 µg/mL (≈ 30.6 µM). Further, in test [2], the IC50 is over 100 µg/mL. Besides, in test [3], the minimal inhibitory concentration (MIC) worked out at 1 µg/mL (≈ 4.03 µM).

These data come from ChEMBL document CHEMBL4411263, “Isolation of Tryptanthrin and Reassessment of Evidence for Its Isobaric Isostere Wrightiadione in Plants of the Wrightia Genus” (J Nat Prod, 2019).
